Experimental data taken from PubChem BioAssay (NCI).
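Following 48 hours of exposure in 96-well plates, responses at five concentrations were used to interpolate endpoints linearly. TGI denotes the concentration required for complete inhibition of growth.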

Columns and labels:
Test in all cases: inhibition of tumour cell growth, NCI panel, 48 h
[1] = test system: OVCAR-8 ovarian
[2] = test system: SR leukemia
[3] = test system: SK-MEL-2 melanoma
[4] = test system: HOP-18 NSCLC
[5] = test system: KM12 colon
[6] = test system: UACC-257 melanoma
[7] = test system: MOLT-4 leukemia
[8] = test system: NCI-H460 lung
[9] = test system: COLO 205 colon
[10] = test system: HT29 colon
[11] = test system: UACC-62 melanoma
[12] = test system: NCI/ADR-RES ovarian
[13] = test system: SNB-75 CNS
[14] = test system: U251 CNS
[15] = test system: PC-3 prostate
[16] = test system: HCT-116 colon
[17] = test system: SK-MEL-28 melanoma
[18] = test system: IGROV1 ovarian
[19] = test system: SF-268 CNS
[20] = test system: TK-10 renal
[21] = test system: T-47D breast
[22] = test system: BT-549 breast
[23] = test system: NCI-H226 lung
[24] = test system: OVCAR-4 ovarian
[25] = test system: DU-145 prostate
[26] = test system: UO-31 renal
[27] = test system: RPMI-8226 leukemia
[28] = test system: MDA-N
[29] = test system: MCF7 breast
[30] = test system: MALME-3M melanoma
[31] = test system: NCI-H23 lung
[32] = test system: KM20L2 colon
[33] = test system: M14 melanoma
[34] = test system: SN12C renal
[35] = test system: HCT-15 colon
[36] = test system: SF-539 CNS
[37] = test system: CCRF-CEM leukemia
[38] = test system: DLD-1 colon
[39] = test system: OVCAR-3 ovarian
[40] = test system: SF-295 CNS
[41] = test system: A549 NSCLC
[42] = test system: OVCAR-5 ovarian
[43] = test system: HCC-2998 colon
[44] = test system: EKVX NSCLC
[45] = test system: DMS 114 small cell lung
[46] = test system: DMS 273 small cell lung
[47] = test system: HS 578T breast
[48] = test system: SNB-78 CNS
[49] = test system: HL-60(TB) leukemia
[50] = test system: SW-620 colon
[51] = test system: HOP-92 NSCLC
[52] = test system: SNB-19 CNS
[53] = test system: LXFL 529 NSCLC
[54] = test system: RXF 393 renal
[55] = test system: ACHN renal
[56] = test system: A498 renal
[57] = test system: K-562 leukemia
[58] = test system: CAKI-1 renal
[59] = test system: NCI-H522 lung
[60] = test system: SK-OV-3 ovarian
[61] = test system: 786-0 renal
[62] = test system: MDA-MB-435
[63] = test system: SK-MEL-5 melanoma
[64] = test system: MDA-MB-231 breast
[65] = test system: HOP-62 NSCLC
[66] = test system: LOX IMVI melanoma
[67] = test system: M19-MEL melanoma

Q: Which results are given for `O=C1C=C(Nc2cccnc2)c2ccccc2C1=O`?
A: TGI [1]: 23.1 µM; TGI [2]: 37 µM; TGI [3]: 25.1 µM; TGI [4]: 22 µM; TGI [5]: 23.4 µM; TGI [6]: 4.48 µM; TGI [7]: 46.6 µM; TGI [8]: 12.5 µM; TGI [9]: 38.6 µM; TGI [10]: 33.7 µM; TGI [11]: 3.31 µM; TGI [12]: 23.9 µM; TGI [13]: 5.45 µM; TGI [14]: 24.4 µM; TGI [15]: 52.4 µM; TGI [16]: 25.6 µM; TGI [17]: 13.5 µM; TGI [18]: 18.7 µM; TGI [19]: 20.9 µM; TGI [20]: 34.5 µM; TGI [21]: 43.8 µM; TGI [22]: 3.83 µM; TGI [23]: 38.1 µM; TGI [24]: 19.9 µM; TGI [25]: 14.1 µM; TGI [26]: 24.2 µM; TGI [27]: 51.3 µM; TGI [28]: 1.42 µM; TGI [29]: 8.2 µM; TGI [30]: 5.35 µM; TGI [31]: 9.41 µM; TGI [32]: > 62.3 µM; TGI [33]: 6.76 µM; TGI [34]: 21.5 µM; TGI [35]: 29.3 µM; TGI [36]: 8.41 µM; TGI [37]: 51.9 µM; TGI [38]: 20 µM; TGI [39]: 11.6 µM; TGI [40]: 9.09 µM; TGI [41]: 13.3 µM; TGI [42]: 18.4 µM; TGI [43]: 30.5 µM; TGI [44]: 26.7 µM; TGI [45]: 5.01 µM; TGI [46]: > 39.6 µM; TGI [47]: 8.33 µM; TGI [48]: 38 µM; TGI [49]: 23 µM; TGI [50]: 18.7 µM; TGI [51]: 27.1 µM; TGI [52]: 24.8 µM; TGI [53]: > 51.3 µM; TGI [54]: 38 µM; TGI [55]: 20.5 µM; TGI [56]: 22.3 µM; TGI [57]: 22.7 µM; TGI [58]: 18.6 µM; TGI [59]: 15.5 µM; TGI [60]: 22.1 µM; TGI [61]: 23.8 µM; TGI [62]: 1.39 µM; TGI [63]: 2.58 µM; TGI [64]: 20.4 µM; TGI [65]: 12.9 µM; TGI [66]: 9.9 µM

Q: What does the source list for `CCCC12Cc3c(OC)ccc(OC)c3CC(Cc3c(OC)ccc(OC)c31)C2=O` (stereo not given)?
A: TGI [1]: > 100 µM; TGI [2]: > 100 µM; TGI [3]: > 100 µM; TGI [5]: > 100 µM; TGI [6]: > 100 µM; TGI [7]: > 100 µM; TGI [8]: > 100 µM; TGI [10]: > 100 µM; TGI [13]: > 100 µM; TGI [14]: > 100 µM; TGI [16]: > 100 µM; TGI [17]: > 100 µM; TGI [19]: > 100 µM; TGI [20]: > 100 µM; TGI [23]: > 100 µM; TGI [24]: > 100 µM; TGI [26]: > 100 µM; TGI [30]: > 100 µM; TGI [31]: > 100 µM; TGI [33]: > 100 µM; TGI [34]: > 100 µM; TGI [35]: > 100 µM; TGI [36]: > 100 µM; TGI [37]: > 100 µM; TGI [38]: > 100 µM; TGI [39]: > 100 µM; TGI [40]: > 100 µM; TGI [41]: > 100 µM; TGI [42]: > 100 µM; TGI [43]: > 100 µM; TGI [44]: > 100 µM; TGI [45]: > 100 µM; TGI [46]: > 100 µM; TGI [48]: > 100 µM; TGI [49]: > 100 µM; TGI [50]: > 100 µM; TGI [52]: > 100 µM; TGI [53]: > 100 µM; TGI [54]: > 100 µM; TGI [55]: > 100 µM; TGI [56]: > 100 µM; TGI [57]: > 100 µM; TGI [58]: > 100 µM; TGI [59]: > 100 µM; TGI [60]: > 100 µM; TGI [61]: > 100 µM; TGI [63]: > 100 µM; TGI [67]: > 100 µM; TGI [65]: > 100 µM
